{"source": "the NIST ThermoML archive (doi:10.1016/j.tca.2014.06.026)", "key": {"[1]": {"settings": "101 kPa, Liquid; for speed of sound: Frequency=2 MHz, Sing-around technique in a fixed-path interferometer; for viscosity: Oscillating disk viscometry; for mass density: Vibrating tube method"}, "[2]": {"assay": "xn = mol fraction of the nth substance listed", "settings": "101 kPa, Liquid, x1 = 1; for speed of sound: Frequency=2 MHz, Sing-around technique in a fixed-path interferometer; for viscosity: Oscillating disk viscometry; for mass density: Vibrating tube method"}}, "note": "Numbers after ± are expanded uncertainties."}
{"compound": "C1=CCCCC1", "note": "[cyclohexene]", "values": [{"measurement": "speed of sound", "setting": "[1]; 303.15 K", "result": "1252.1 ± 0.8", "unit": "m/s"}, {"measurement": "viscosity", "setting": "[1]; 303.15 K", "result": "0.581 ± 0.12", "unit": "mPa·s"}, {"measurement": "mass density", "setting": "[1]; 303.15 K", "result": "801.81 ± 0.15", "unit": "kg/m3"}, {"measurement": "speed of sound", "setting": "[1]; 308.15 K", "result": "1224.8 ± 0.8", "unit": "m/s"}, {"measurement": "viscosity", "setting": "[1]; 308.15 K", "result": "0.549 ± 0.11", "unit": "mPa·s"}, {"measurement": "mass density", "setting": "[1]; 308.15 K", "result": "797.25 ± 0.15", "unit": "kg/m3"}, {"measurement": "speed of sound", "setting": "[1]; 313.15 K", "result": "1196.6 ± 0.8", "unit": "m/s"}, {"measurement": "viscosity", "setting": "[1]; 313.15 K", "result": "0.516 ± 0.1", "unit": "mPa·s"}, {"measurement": "mass density", "setting": "[1]; 313.15 K", "result": "792.61 ± 0.15", "unit": "kg/m3"}, {"measurement": "speed of sound", "setting": "[1]; 318.15 K", "result": "1169.6 ± 0.8", "unit": "m/s"}, {"measurement": "viscosity", "setting": "[1]; 318.15 K", "result": "0.488 ± 0.098", "unit": "mPa·s"}, {"measurement": "mass density", "setting": "[1]; 318.15 K", "result": "788.02 ± 0.15", "unit": "kg/m3"}]}
{"compound": "NC1CCCCC1", "note": "[cyclohexylamine]", "values": [{"measurement": "speed of sound", "setting": "[1]; 303.15 K", "result": "1397.8 ± 0.9", "unit": "m/s"}, {"measurement": "viscosity", "setting": "[1]; 303.15 K", "result": "1.797 ± 0.36", "unit": "mPa·s"}, {"measurement": "mass density", "setting": "[1]; 303.15 K", "result": "857.71 ± 0.14", "unit": "kg/m3"}, {"measurement": "speed of sound", "setting": "[1]; 308.15 K", "result": "1379.2 ± 0.9", "unit": "m/s"}, {"measurement": "viscosity", "setting": "[1]; 308.15 K", "result": "1.704 ± 0.34", "unit": "mPa·s"}, {"measurement": "mass density", "setting": "[1]; 308.15 K", "result": "853.14 ± 0.14", "unit": "kg/m3"}, {"measurement": "speed of sound", "setting": "[1]; 313.15 K", "result": "1360.6 ± 0.9", "unit": "m/s"}, {"measurement": "viscosity", "setting": "[1]; 313.15 K", "result": "1.617 ± 0.32", "unit": "mPa·s"}, {"measurement": "mass density", "setting": "[1]; 313.15 K", "result": "848.61 ± 0.14", "unit": "kg/m3"}, {"measurement": "speed of sound", "setting": "[1]; 318.15 K", "result": "1342 ± 0.9", "unit": "m/s"}, {"measurement": "viscosity", "setting": "[1]; 318.15 K", "result": "1.506 ± 0.3", "unit": "mPa·s"}, {"measurement": "mass density", "setting": "[1]; 318.15 K", "result": "844.07 ± 0.14", "unit": "kg/m3"}]}
{"compound": "CN1CCCC1=O", "note": "[N-methylpyrrolidone] + OC1CCCCC1", "values": [{"measurement": "speed of sound", "setting": "[2]; 303.15 K", "result": "1552.8 ± 1", "unit": "m/s"}, {"measurement": "viscosity", "setting": "[2]; 303.15 K", "result": "1.511 ± 0.3", "unit": "mPa·s"}, {"measurement": "mass density", "setting": "[2]; 303.15 K", "result": "1023.45 ± 0.11", "unit": "kg/m3"}, {"measurement": "speed of sound", "setting": "[2]; 308.15 K", "result": "1526.4 ± 0.9", "unit": "m/s"}, {"measurement": "viscosity", "setting": "[2]; 308.15 K", "result": "1.409 ± 0.28", "unit": "mPa·s"}, {"measurement": "mass density", "setting": "[2]; 308.15 K", "result": "1019.34 ± 0.11", "unit": "kg/m3"}, {"measurement": "speed of sound", "setting": "[2]; 313.15 K", "result": "1501 ± 0.9", "unit": "m/s"}, {"measurement": "viscosity", "setting": "[2]; 313.15 K", "result": "1.332 ± 0.27", "unit": "mPa·s"}, {"measurement": "mass density", "setting": "[2]; 313.15 K", "result": "1014.82 ± 0.11", "unit": "kg/m3"}, {"measurement": "speed of sound", "setting": "[2]; 318.15 K", "result": "1478 ± 0.9", "unit": "m/s"}, {"measurement": "viscosity", "setting": "[2]; 318.15 K", "result": "1.21 ± 0.24", "unit": "mPa·s"}, {"measurement": "mass density", "setting": "[2]; 318.15 K", "result": "1010.06 ± 0.11", "unit": "kg/m3"}]}
{"compound": "OC1CCCCC1", "note": "[cyclohexanol]", "values": [{"measurement": "speed of sound", "setting": "[1]; 303.15 K", "result": "1443.2 ± 0.9", "unit": "m/s"}, {"measurement": "viscosity", "setting": "[1]; 303.15 K", "result": "41.07 ± 8.2", "unit": "mPa·s"}, {"measurement": "mass density", "setting": "[1]; 303.15 K", "result": "941.32 ± 0.12", "unit": "kg/m3"}, {"measurement": "speed of sound", "setting": "[1]; 308.15 K", "result": "1419.6 ± 0.9", "unit": "m/s"}, {"measurement": "viscosity", "setting": "[1]; 308.15 K", "result": "27.95 ± 5.6", "unit": "mPa·s"}, {"measurement": "mass density", "setting": "[1]; 308.15 K", "result": "937.23 ± 0.12", "unit": "kg/m3"}, {"measurement": "speed of sound", "setting": "[1]; 313.15 K", "result": "1395.2 ± 0.9", "unit": "m/s"}, {"measurement": "viscosity", "setting": "[1]; 313.15 K", "result": "16.66 ± 3.3", "unit": "mPa·s"}, {"measurement": "mass density", "setting": "[1]; 313.15 K", "result": "933.48 ± 0.12", "unit": "kg/m3"}, {"measurement": "speed of sound", "setting": "[1]; 318.15 K", "result": "1370.8 ± 0.9", "unit": "m/s"}, {"measurement": "viscosity", "setting": "[1]; 318.15 K", "result": "8.888 ± 1.8", "unit": "mPa·s"}, {"measurement": "mass density", "setting": "[1]; 318.15 K", "result": "928.11 ± 0.12", "unit": "kg/m3"}]}
{"compound": "CN1CCCC1=O", "note": "[N-methylpyrrolidone] + NC1CCCCC1", "values": [{"measurement": "speed of sound", "setting": "[2]; 303.15 K", "result": "1552.8 ± 1", "unit": "m/s"}, {"measurement": "viscosity", "setting": "[2]; 303.15 K", "result": "1.511 ± 0.3", "unit": "mPa·s"}, {"measurement": "mass density", "setting": "[2]; 303.15 K", "result": "1023.45 ± 0.11", "unit": "kg/m3"}, {"measurement": "speed of sound", "setting": "[2]; 308.15 K", "result": "1526.4 ± 0.9", "unit": "m/s"}, {"measurement": "viscosity", "setting": "[2]; 308.15 K", "result": "1.409 ± 0.28", "unit": "mPa·s"}, {"measurement": "mass density", "setting": "[2]; 308.15 K", "result": "1019.34 ± 0.11", "unit": "kg/m3"}, {"measurement": "speed of sound", "setting": "[2]; 313.15 K", "result": "1501 ± 0.9", "unit": "m/s"}, {"measurement": "viscosity", "setting": "[2]; 313.15 K", "result": "1.332 ± 0.27", "unit": "mPa·s"}, {"measurement": "mass density", "setting": "[2]; 313.15 K", "result": "1014.82 ± 0.11", "unit": "kg/m3"}, {"measurement": "speed of sound", "setting": "[2]; 318.15 K", "result": "1478 ± 0.9", "unit": "m/s"}, {"measurement": "viscosity", "setting": "[2]; 318.15 K", "result": "1.21 ± 0.24", "unit": "mPa·s"}, {"measurement": "mass density", "setting": "[2]; 318.15 K", "result": "1010.06 ± 0.11", "unit": "kg/m3"}]}
{"compound": "CN1CCCC1=O", "note": "[N-methylpyrrolidone]", "values": [{"measurement": "speed of sound", "setting": "[1]; 303.15 K", "result": "1552.8 ± 1", "unit": "m/s"}, {"measurement": "viscosity", "setting": "[1]; 303.15 K", "result": "1.511 ± 0.3", "unit": "mPa·s"}, {"measurement": "mass density", "setting": "[1]; 303.15 K", "result": "1023.45 ± 0.11", "unit": "kg/m3"}, {"measurement": "speed of sound", "setting": "[1]; 308.15 K", "result": "1526.4 ± 0.9", "unit": "m/s"}, {"measurement": "viscosity", "setting": "[1]; 308.15 K", "result": "1.409 ± 0.28", "unit": "mPa·s"}, {"measurement": "mass density", "setting": "[1]; 308.15 K", "result": "1019.34 ± 0.11", "unit": "kg/m3"}, {"measurement": "speed of sound", "setting": "[1]; 313.15 K", "result": "1501 ± 0.9", "unit": "m/s"}, {"measurement": "viscosity", "setting": "[1]; 313.15 K", "result": "1.332 ± 0.27", "unit": "mPa·s"}, {"measurement": "mass density", "setting": "[1]; 313.15 K", "result": "1014.82 ± 0.11", "unit": "kg/m3"}, {"measurement": "speed of sound", "setting": "[1]; 318.15 K", "result": "1478 ± 0.9", "unit": "m/s"}, {"measurement": "viscosity", "setting": "[1]; 318.15 K", "result": "1.21 ± 0.24", "unit": "mPa·s"}, {"measurement": "mass density", "setting": "[1]; 318.15 K", "result": "1010.06 ± 0.11", "unit": "kg/m3"}]}
{"compound": "CN1CCCC1=O", "note": "[N-methylpyrrolidone] + C1=CCCCC1", "values": [{"measurement": "speed of sound", "setting": "[2]; 303.15 K", "result": "1552.8 ± 1", "unit": "m/s"}, {"measurement": "viscosity", "setting": "[2]; 303.15 K", "result": "1.511 ± 0.3", "unit": "mPa·s"}, {"measurement": "mass density", "setting": "[2]; 303.15 K", "result": "1023.45 ± 0.11", "unit": "kg/m3"}, {"measurement": "speed of sound", "setting": "[2]; 308.15 K", "result": "1526.4 ± 0.9", "unit": "m/s"}, {"measurement": "viscosity", "setting": "[2]; 308.15 K", "result": "1.409 ± 0.28", "unit": "mPa·s"}, {"measurement": "mass density", "setting": "[2]; 308.15 K", "result": "1019.34 ± 0.11", "unit": "kg/m3"}, {"measurement": "speed of sound", "setting": "[2]; 313.15 K", "result": "1501 ± 0.9", "unit": "m/s"}, {"measurement": "viscosity", "setting": "[2]; 313.15 K", "result": "1.332 ± 0.27", "unit": "mPa·s"}, {"measurement": "mass density", "setting": "[2]; 313.15 K", "result": "1014.82 ± 0.11", "unit": "kg/m3"}, {"measurement": "speed of sound", "setting": "[2]; 318.15 K", "result": "1478 ± 0.9", "unit": "m/s"}, {"measurement": "viscosity", "setting": "[2]; 318.15 K", "result": "1.21 ± 0.24", "unit": "mPa·s"}, {"measurement": "mass density", "setting": "[2]; 318.15 K", "result": "1010.06 ± 0.11", "unit": "kg/m3"}]}
